The values that follow come from patent US20240358865A1, “QUINOLINYL AND PRIDINYL CONTAINING COMPOUNDS TARGETING ON ALPHA-SYNUCLEIN FOR NEUROLOGICAL DISEASES” (Washington University, priority 2023, published 2024).

Data set [1] is described as follows: NHP plasma radiometabolite study (column-switching HPLC). The format is in vivo, Monkey. The settings on record: for Peak B (%) (parental tracer): monkey plasma. The text has this:
Monkey arterial/venous blood samples were collected at various intervals during the PET scans to measure the radio metabolite profile using the column-switching HPLC system equipped with an Oasis HLB online capture column (80 Å, 15 μm, 3.9 mm×20 mm, Waters 186001414) with Universal Guard Column holder (WAT046910, Waters) and a Agilent ZORBAX Eclipse XDB-C18 analytical column (5 μm, 250×4.6 mm, Part No. 990967-902), following a published protocol (Hilton J, et al., Nucl Med Biol. 2000 August; 27(6):627-30; Cai Z, et al., ACS Chem Neurosci. 2020 Feb. 19; 11(4):592-603).
Briefly, blood samples (vary with volume, 4-8 mL) were collected at 5, 15, 30, 60, 90 min post-injection of radiotracer. The whole blood was centrifuged at RCF 1300 g for 5 min to separate the blood cells and obtain plasma. Clean supernatant plasma was collected and added into solid urea to eliminate competitive protein binding and to allow complete backflush of the parent compound and metabolites from the capture column to analytical column. Typically, 3.2 mL of plasma is added to 2.12 g of urea to yield a final concentration of 8 M urea and a final volume of about 4.5 mL. The plasma-urea mix was then filtered through a Whatman® GD/X syringe filters (pore size 1 μm, diam. 13 mm, WHA68841310, Sigma, USA) and injected into a 5 mL HPLC loop concatenating with the capture column, which eluted with 1% acetonitrile in ammonium formate (0.1 M, pH=4.5) at 2 mL/min for 4 min. The enriched radioactivity in the short capture column was reverse flowed into an analytical C18 column with 60% acetonitrile and 40% ammonium formate (0.1 M, pH=4.5) at a flow rate of 1.0 mL/min for 25 min.
The radioactive peak B is the parental [^18F]TZ83-41 tracer with retention time of 14.3 min; one radiometabolite is peak A at 6.8 min (FIG. 2A and FIG. 2B).

Data set [2] is described as follows: Biodistribution study in rats. The format is in vivo, Sprague Dawley (SD) rats. The settings on record: from 5 to 120 min. An excerpt:
(§1) The radiosynthesis of [^18F]TZ83-41 was accomplished by a two-step procedure with [^18F]fluoroethyl ptoluenesulfonate as a prosthetic group, followed by O-alkylation to the quinolinyl-containing phenol group. [^18F]TZ80-156 was synthesized starting from the allylic bromide precursor via nucleophilic halogen exchange (halex) reaction with [^18F]fluoride, followed by deprotection of the N-Boc amine with trifluoroacetic acid. Homologous competitive binding assays with α-synuclein fibrils amplified from PD tissue were used to determine the direct binding affinity of the two radioligands. The biodistribution study was performed in male Sprague Dawley (SD) rats at four time points (5, 30, 60 min and 120 min) after intravenous injection of the radiotracer. The uptake of radioactivity was calculated as percentage injected dose per gram (% ID/gram). Both radiotracers were evaluated with microPET imaging using a Focus 220 microPET scanner to collect dynamic scans after intravenous injection into male macaques (NHP) (FIGS. 1A-1C).

Data set [3] in a line: PET studies in the brains of nonhuman primates (Example 3). The format is in vivo. The text has this: A PET study in nonhuman primates found uptake of [^11C]TZ61-84 (FIG. 3C).
Another PET study of [^18F]TZ80-156 and [^18F]TZ83-41 in nonhuman primates also found uptake (FIG. 4A).
A further PET study also found uptake of several additional compounds, including [^18F]TZ80-156 and [^18F]TZ83-41 (FIG. 4B).

Data set [4] relates to Alzheimer's disease brain tissue homogenate. Put plainly: Direct radioligand binding to Alzheimer's disease brain tissue homogenate. The text has this:
(§2) The radioligands [^18F]TZ83-41 and [^18F]TZ80-156 were successfully produced in 17±3% (n=2) and 25±5% (n=2) radiochemical yield (RCY) respectively with high molar activity (>37 GBq/μmol) and high radiochemical purity (>99%), at the end of synthesis (EOS).

The nature of data set [5]: MicroPET imaging of the macaque (NHP) brain. It counts as in vivo.
Excerpt: as §1

Data set [6] concerns the target T1, α-synuclein fibrils amplified from PD tissue (Homo sapiens, UniProt P37840).
T1 construct: from tissue; host or cells: fibrils amplified from PD tissue (Banner amplified fibrils are mentioned)
As to the kind of experiment: Direct radioligand (homologous competitive) binding assay. Conditions: read-out: binding affinity for α-synuclein fibrils.
Excerpt: as §1, §2

“Also recorded” adds a separate entry of the source.

As to `CCCOc1ccc(Nc2ccc3cc(OCC[18F])ccc3n2)cn1` [[^18F]TZ83-41], the “Peak B (%) (parental tracer)” value in data set [1] (5 min post-injection) amounted to 92%; in data set [1] (15 min post-injection), 69%; in data set [1] (30 min post-injection), 59%; in data set [1] (60 min post-injection), 47%; in data set [1] (90 min post-injection), 38%. Further, in data set [1] (nonhuman primate plasma samples post injection), the “lipophilic radiometabolite entering the brain” value was “no lipophilic radiometabolite”. Moreover, in data set [2], the brain uptake is recorded as 0.71˜0.24 % ID/gram. For the same molecule, in data set [3], the “brain uptake in PET study” value was “found uptake”. For the same molecule, the “binding to Alzheimer's disease brain tissue homogenate” value in data set [4] is recorded as “little to no binding”. Also, the “crossing of the blood brain barrier” value in data set [5] (NHP) is “crossed the blood brain barrier”. Further, the “brain standardized uptake value (SUV) maximum” value in data set [5] (NHP brain, microPET, intravenous) is reported as about 2.0. For the same molecule, the “washout from the NHP brain” value in data set [5] (microPET) is reported as “favorable washout rate; also recorded: favorable washout kinetics; also recorded: suitable brain washout pharmacokinetics”. The “brain uptake (in words)” value in data set [5] (nonhuman primate brain imaging) is given as “high brain uptake”. Besides, the Kd in data set [6] was 7.6 nM.
